From the NIST ThermoML archive (doi:10.1021/je200213h)

Assays:
[1] = 101.33 kPa, Liquid, Capillary tube (Ostwald / Ubbelohde) method
[2] = xn = mol fraction of the nth substance listed; conditions: 101 kPa, Liquid, Capillary tube (Ostwald / Ubbelohde) method

CC(C)CCl [1-chloro-2-methylpropane]
[1]
Conditions	kinematic viscosity [m2/s]
283.15 K	5.8e-07
298.15 K	4.929e-07
313.15 K	4.363e-07

CC(C)CCl [1-chloro-2-methylpropane] + CCC(C)CC
kinematic viscosity [m2/s], [2]
Conditions	283.15 K	298.15 K	313.15 K
x2 = 0.0522	5.703e-07	4.87e-07	4.322e-07
x2 = 0.1013	5.618e-07	4.823e-07	4.275e-07
x2 = 0.2024	5.464e-07	4.717e-07	4.187e-07
x2 = 0.3032	5.324e-07	4.631e-07	4.113e-07
x2 = 0.4028	5.212e-07	4.55e-07	4.048e-07
x2 = 0.5056	5.115e-07	4.484e-07	3.994e-07
x2 = 0.604	5.043e-07	4.43e-07	3.951e-07
x2 = 0.7018	4.988e-07	4.396e-07	3.918e-07
x2 = 0.8002	4.949e-07	4.37e-07	3.896e-07
x2 = 0.898	4.93e-07	4.357e-07	3.881e-07
x2 = 0.9486	4.927e-07	4.355e-07	3.879e-07

CC(C)CCl [1-chloro-2-methylpropane] + CCCCCC
kinematic viscosity [m2/s], [2]
Conditions	283.15 K	298.15 K	313.15 K
x2 = 0.0512	5.712e-07	4.863e-07	4.32e-07
x2 = 0.0999	5.631e-07	4.817e-07	4.282e-07
x2 = 0.2003	5.468e-07	4.711e-07	4.196e-07
x2 = 0.2993	5.339e-07	4.633e-07	4.128e-07
x2 = 0.4005	5.239e-07	4.566e-07	4.077e-07
x2 = 0.4977	5.171e-07	4.517e-07	4.041e-07
x2 = 0.598	5.12e-07	4.478e-07	4.017e-07
x2 = 0.6993	5.089e-07	4.462e-07	4.01e-07
x2 = 0.799	5.077e-07	4.455e-07	4.002e-07
x2 = 0.8967	5.092e-07	4.457e-07	4.006e-07
x2 = 0.9472	5.103e-07	4.474e-07	4.023e-07

CC(C)CCl [1-chloro-2-methylpropane] + CCCCCCC
kinematic viscosity [m2/s], [2]
Conditions	283.15 K	298.15 K	313.15 K
x2 = 0.0507	5.818e-07	4.95e-07	4.381e-07
x2 = 0.0979	5.817e-07	4.97e-07	4.396e-07
x2 = 0.2004	5.851e-07	5.015e-07	4.438e-07
x2 = 0.3008	5.905e-07	5.064e-07	4.483e-07
x2 = 0.3993	5.97e-07	5.134e-07	4.536e-07
x2 = 0.4999	6.054e-07	5.215e-07	4.599e-07
x2 = 0.5973	6.156e-07	5.306e-07	4.663e-07
x2 = 0.6994	6.268e-07	5.403e-07	4.733e-07
x2 = 0.8006	6.397e-07	5.516e-07	4.809e-07
x2 = 0.9002	6.538e-07	5.633e-07	4.894e-07
x2 = 0.9491	6.615e-07	5.692e-07	4.94e-07

CCCCCl [1-chlorobutane]
[1]
Conditions	kinematic viscosity [m2/s]
283.15 K	5.564e-07
298.15 K	4.785e-07
313.15 K	4.216e-07

CCCCCl [1-chlorobutane] + CCCCCC
kinematic viscosity [m2/s], [2]
Conditions	283.15 K	298.15 K	313.15 K
x1 = 0.0508	5.501e-07	4.74e-07	4.182e-07
x1 = 0.0992	5.449e-07	4.701e-07	4.169e-07
x1 = 0.1972	5.351e-07	4.634e-07	4.118e-07
x1 = 0.2966	5.269e-07	4.577e-07	4.08e-07
x1 = 0.3976	5.198e-07	4.531e-07	4.048e-07
x1 = 0.5009	5.145e-07	4.495e-07	4.027e-07
x1 = 0.6006	5.112e-07	4.467e-07	4.011e-07
x1 = 0.6982	5.092e-07	4.451e-07	4.005e-07
x1 = 0.7972	5.082e-07	4.455e-07	4.01e-07
x1 = 0.8979	5.094e-07	4.464e-07	4.023e-07
x1 = 0.9472	5.103e-07	4.474e-07	4.027e-07

CCCCCl [1-chlorobutane] + CCCCCCC
kinematic viscosity [m2/s], [2]
Conditions	283.15 K	298.15 K	313.15 K
x1 = 0.0508	5.595e-07	4.824e-07	4.248e-07
x1 = 0.1017	5.632e-07	4.857e-07	4.278e-07
x1 = 0.1981	5.703e-07	4.927e-07	4.335e-07
x1 = 0.2989	5.788e-07	5e-07	4.396e-07
x1 = 0.4022	5.882e-07	5.088e-07	4.471e-07
x1 = 0.4998	5.984e-07	5.177e-07	4.545e-07
x1 = 0.6008	6.102e-07	5.278e-07	4.624e-07
x1 = 0.6989	6.229e-07	5.386e-07	4.705e-07
x1 = 0.7985	6.367e-07	5.501e-07	4.792e-07
x1 = 0.898	6.52e-07	5.626e-07	4.882e-07
x1 = 0.9498	6.608e-07	5.692e-07	4.935e-07

CCC(C)(C)C [2,2-dimethylbutane]
[1]
Conditions	kinematic viscosity [m2/s]
283.15 K	6.234e-07
298.15 K	5.206e-07
313.15 K	4.579e-07

CCC(C)(C)C [2,2-dimethylbutane] + CC(C)(C)Cl
kinematic viscosity [m2/s], [2]
Conditions	283.15 K	298.15 K	313.15 K
x1 = 0.0499	6.937e-07	5.657e-07	4.748e-07
x1 = 0.1017	6.864e-07	5.592e-07	4.715e-07
x1 = 0.1983	6.729e-07	5.493e-07	4.664e-07
x1 = 0.3004	6.6e-07	5.405e-07	4.607e-07
x1 = 0.399	6.491e-07	5.333e-07	4.568e-07
x1 = 0.4989	6.399e-07	5.275e-07	4.538e-07
x1 = 0.6017	6.32e-07	5.225e-07	4.522e-07
x1 = 0.7034	6.27e-07	5.2e-07	4.518e-07
x1 = 0.8	6.228e-07	5.18e-07	4.519e-07
x1 = 0.8967	6.221e-07	5.184e-07	4.541e-07
x1 = 0.9504	6.224e-07	5.19e-07	4.556e-07

CCC(C)(C)C [2,2-dimethylbutane] + CC(C)CCl
kinematic viscosity [m2/s], [2]
Conditions	283.15 K	298.15 K	313.15 K
x1 = 0.0487	5.82e-07	4.94e-07	4.366e-07
x1 = 0.0994	5.816e-07	4.941e-07	4.365e-07
x1 = 0.1995	5.814e-07	4.939e-07	4.362e-07
x1 = 0.2985	5.821e-07	4.939e-07	4.363e-07
x1 = 0.3993	5.834e-07	4.942e-07	4.366e-07
x1 = 0.5018	5.866e-07	4.958e-07	4.38e-07
x1 = 0.6011	5.899e-07	4.986e-07	4.402e-07
x1 = 0.6985	5.953e-07	5.025e-07	4.439e-07
x1 = 0.7995	6.024e-07	5.071e-07	4.476e-07
x1 = 0.8988	6.115e-07	5.13e-07	4.524e-07
x1 = 0.9479	6.158e-07	5.163e-07	4.542e-07

CCC(C)(C)C [2,2-dimethylbutane] + CCC(C)Cl
kinematic viscosity [m2/s], [2]
Conditions	283.15 K	298.15 K	313.15 K
x1 = 0.0448	5.266e-07	4.621e-07	4.07e-07
x1 = 0.0993	5.3e-07	4.64e-07	4.086e-07
x1 = 0.2003	5.356e-07	4.679e-07	4.12e-07
x1 = 0.301	5.421e-07	4.719e-07	4.157e-07
x1 = 0.3993	5.494e-07	4.761e-07	4.2e-07
x1 = 0.4989	5.579e-07	4.815e-07	4.251e-07
x1 = 0.6039	5.683e-07	4.88e-07	4.309e-07
x1 = 0.7002	5.793e-07	4.949e-07	4.368e-07
x1 = 0.8033	5.935e-07	5.036e-07	4.438e-07
x1 = 0.9028	6.07e-07	5.122e-07	4.508e-07
x1 = 0.9518	6.147e-07	5.165e-07	4.546e-07
